# Reference: PMC6479877, “Development of Chemical Tools to Monitor Human Kallikrein 13 (KLK13) Activity” (International Journal of Molecular Sciences, 2019)
# Where a SMILES comes first, the peptide text is derived from it. The star is where a group is joined. Biotin = O=C1N[C@H]2[C@H](CS[C@H]2CCCCC(=O)*)N1; AEA = NCCOCC(=O)O; CH2Cl = ClC*
# Key:
# [1] = target: T1, KLK13 (Homo sapiens, UniProt Q9UKR3); assay: Inhibitory activity of CMK inhibitors / activity-based probes against KLK13; type: biochemical; set-up: His6 (the forward primers encode HHHHHH followed by DDDDK; the protein was purified on nickel) (N); made in house; details: progress curves method, irreversible inhibition, inhibitor 0–50 µM, Substrate 2 10 µM, KLK13 10 nM, 37 °C, pH 7.5, mean ± SD of three replicates
# T1 sequence (Q9UKR3 26-277 limits assumed): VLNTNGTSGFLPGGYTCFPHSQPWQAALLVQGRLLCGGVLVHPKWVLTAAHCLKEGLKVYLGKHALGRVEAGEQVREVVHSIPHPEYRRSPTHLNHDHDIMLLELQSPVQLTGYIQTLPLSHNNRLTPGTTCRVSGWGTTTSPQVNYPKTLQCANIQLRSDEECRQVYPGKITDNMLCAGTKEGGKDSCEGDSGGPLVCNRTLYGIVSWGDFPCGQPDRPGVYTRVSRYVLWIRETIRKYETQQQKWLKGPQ
# Experimental: The kinetic parameters of inhibition were determined using a progress curve model for irreversible inhibition, as described previously. […] Upon the addition of KLK13 (final concentration 10 nM), the fluorescence of the hydrolyzed substrate was monitored in each sample at excitation and emission wavelengths of 320 and 450 nm, respectively, for 1 h using a microplate reader Gemini EM (Molecular Devices, Berkshire, UK). The reactions were carried out in 200 µL of final volume of 50 mM Tris-Cl (pH 7.5) containing 1 mM EDTA and 0.5 μM heparin at 37 °C. Progress curves were fitted to the resulting data points and then kobs derived from each curve was plotted against inhibitor concentration. Final values of kass were calculated by linear regression and presented as mean ± SD of three independent replicates.
# [2] = target: T1, KLK13; assay: Detection of KLK13 using biotinylated ABPs (streptavidin-HRP Western blot); type: binding; set-up: His6 (the forward primers encode HHHHHH followed by DDDDK; the protein was purified on nickel) (N); made in house; host or cells: Leishmania tarentolae strain T7-TR (LEXSY), secreted to the medium; details: 1 µM probe, TNET buffer, 1 h at 37 °C; twofold dilutions of KLK13 500 to 4 ng
# Experimental: Purified active KLK13 (250 ng) was preincubated with increasing concentrations of Bt-PEG-VRFR-CMK or Bt-VRFR-CMK in TNET buffer (0.1 M Tris-HCl, 150 mM NaCl, 5 mM EDTA, 0.05% Tween-20, pH 7.5) for 1 h at 37 °C. Samples were analyzed by SDS-PAGE followed by wet electrotransfer onto a PVDF membrane (GE Healthcare). Membranes were blocked in 5% BSA in TBS buffer (50 mM Tris-HCl, 0.5 M NaCl, pH 7.5) with 0.1% Tween overnight, at 4 °C, followed by incubation with 1:10,000 diluted Streptavidin-HRP (Sigma Aldrich, S2438, Poznan, Poland) for 2 h at RT. After intensive washing with TBS buffer with 0.1% Tween, the signal was developed with Pierce ECL WB substrate (Thermo Fisher Scientific) and visualized manually using AGFA films (Agfa HealthCare, Mortsel, Belgium). To establish the detection limit, decreasing amounts of active KLK13 (ranging from 3.9-500 ng) were preincubated with 1 µM Bt-PEG-VRFR-CMK in TNET buffer for 1 h at 37 °C and visualized by streptavidin-HRP Western blot as described above.
# [3] = target: T1, KLK13; assay: Kinetic parameters of substrate hydrolysis by KLK13; type: biochemical; set-up: His6 (the forward primers encode HHHHHH followed by DDDDK; the protein was purified on nickel) (N); made in house; host or cells: Leishmania tarentolae strain T7-TR (LEXSY), secreted to the medium; details: KLK13 1.25 × 10^−9 M; for Km / kcat: measured in triplicate, ± SD; for kcat/KM (specificity constant): calculated from kcat and KM
# Experimental: The specificity constant (kcat/KM) was calculated from kcat and KM. The details of kinetic studies and the method of calculating kinetic parameters have been described previously.
# [4] = target: T1, KLK13; assay: Detection limit of KLK13 activity with the substrates; type: biochemical; set-up: His6 (the forward primers encode HHHHHH followed by DDDDK; the protein was purified on nickel) (N); made in house; host or cells: Leishmania tarentolae strain T7-TR (LEXSY), secreted to the medium; details: constant amount of substrate, decreasing KLK13; 50 mM Tris-Cl pH 7.5, 1 mM EDTA, 0.5 μM heparin, 37 °C
# Experimental: The detection limit was established by analyzing the correlation between an increase in absorbance/fluorescence and enzyme concentration at constant quantities of each, ABZ-Val-Arg-Phe-Arg-ANB-NH2 (Substrate 1) and ABZ-[…]3-NO2)-NH2 (Substrate 2).
# Int. J. Mol. Sci. 2019, 20, x FOR PEER REVIEW 2 of 2
# Figure S2. Detection limit and pH optimum of KLK13 as determined for the optimized substrates.
# Substrates 1 (A) and 2 (B) were titrated with decreasing amounts of KLK13 in 50 mM Tris-Cl (pH 7.5) buffer containing 1 mM EDTA and 0.5 μM heparin at 37 °C. ( C) pH dependence of KLK13. Processing […]
# of ABZ-[…]3-NO 2)-NH2 by KLK13 was monitored at pH range of 3 to 10 (citric acid/sodium citrate, sodium acetate/acetic acid, MES, MOPS, HEPES and TRIS buffers).
# Reaction progress was monitored by fluorescence detection at the excitation and emission wavelength […]
# (1 picture or pasted object on this page, not shown here)
# [5] = target: T1, KLK13; assay: pH dependence of KLK13 activity; type: biochemical; set-up: His6 (the forward primers encode HHHHHH followed by DDDDK; the protein was purified on nickel) (N); made in house; host or cells: Leishmania tarentolae strain T7-TR (LEXSY), secreted to the medium; details: KLK13 1.25 nM, substrate 6.15 µM, 37 °C, buffers pH 3 to 10
# Experimental: The pH dependence of KLK13 (1.25 nM) was established at 37 °C using substrate 2 (6.15 µM) in following buffers: citric acid/sodium citrate (pH 3), sodium acetate/acetic acid (pH 4 and 5), MES (pH 6), MOPS (pH 7), HEPES (pH 8) and TRIS (pH 9 and 10).
# [6] = test system: cathepsins (CatX, CatL, CatS, CatD, CatH, CatB); assay: Selectivity assessment of substrate 2: cathepsins; type: biochemical; details: substrate 6.15 μM, enzymes 1.25 nM, 37 °C, 50 mM Tris-Cl pH 7.5, 1 mM EDTA, 0.5 μM heparin; fluorescence 450 nm
# Experimental: (§1) Substrate 2 (6.15 μM) was incubated with tested kallikreins (KLK1, KLK2, KLK3, KLK4, KLK6, KLK8, KLK12, KLK13) and cathepsins (CatX, CatL, CatS, CatD, CatH, CatB), all at a concentration of 1.25 nM, at 37 °C in 50 mM Tris-Cl (pH 7.5) buffer containing 1 mM EDTA and 0.5 μM heparin. Proteolytic activity was assayed as an increase in fluorescence at 450 nm.
# [7] = target: T1, KLK13; assay: Site of hydrolysis by RP-HPLC with fluorescence detection and MS; type: biochemical; set-up: His6 (the forward primers encode HHHHHH followed by DDDDK; the protein was purified on nickel) (N); made in house; host or cells: Leishmania tarentolae strain T7-TR (LEXSY), secreted to the medium; details: RP-HPLC with fluorescence detection coupled to MS
# Experimental: The site of hydrolysis was determined after each step of deconvolution of primed site library and for both final substrates (1 and 2) by RP-HPLC monitored by fluorescence detection and MS.
# [8] = test system: KLK1, KLK2, KLK3, KLK4, KLK6, KLK8, KLK12; assay: Selectivity assessment of substrate 2: other kallikreins; type: biochemical; details: substrate 6.15 μM, enzymes 1.25 nM, 37 °C, 50 mM Tris-Cl pH 7.5, 1 mM EDTA, 0.5 μM heparin; fluorescence 450 nm
# Experimental: as §1
Compound,Km [3] [µM],kcat [3] [s⁻¹],kcat/KM (specificity constant) [3],other results
"CC(C)[C@H](NC(=O)COCCNC(=O)CCCC[C@@H]1SC[C@@H]2NC(=O)N[C@@H]21)C(=O)N[C@@H](CCCNC(=N)N)C(=O)N[C@@H](Cc1ccccc1)C(=O)N[C@@H](CCCNC(=N)N)C(=O)CCl [Bt-PEG-VRFR-CMK, Bt-PEG-Val-Arg-Phe-Arg-CMK] ({Biotin-AEA}-VRFR-CH2Cl)",–,–,–,kass [1]: 204 ± 23 M⁻¹ s⁻¹; Detection limit of purified KLK13 in Western blot [2]: ~15 ng
"CC(C)[C@H](NC(=O)CCCC[C@@H]1SC[C@@H]2NC(=O)N[C@@H]21)C(=O)N[C@@H](CCCNC(=N)N)C(=O)N[C@@H](Cc1ccccc1)C(=O)N[C@@H](CCCNC(=N)N)C(=O)CCl [Bt-VRFR-CMK, Bt-Val-Arg-Phe-Arg-CMK] (Biotin-VRFR-CH2Cl)",–,–,–,kass [1]: 49 ± 2 M⁻¹ s⁻¹
ABZ-VRFRSTE-Tyr(3-NO2)-NH2 [optimized substrate differing only at the P3′ position (Glu)],24.7 ± 5.8,91.11 ± 11.61,(3.69 ± 0.40) ×10^6 M^−1·s^−1,–
ABZ-VRFRSTG-Tyr(3-NO2)-NH2 [optimized substrate differing only at the P3′ position (Gly)],19.7 ± 3,169.40 ± 12.40,(8.62 ± 0.37) ×10^6 M^−1·s^−1,–
ABZ-VRFRSTS-Tyr(3-NO2)-NH2 [optimized substrate differing only at the P3′ position (Ser)],14.7 ± 2.2,113.12 ± 6.87,(7.71 ± 0.67) ×10^6 M^−1·s^−1,–
"ABZ-Val-Arg-Phe-Arg-ANB-NH2 [Substrate 1, kinetically preferred non-primed fluorogenic/chromogenic KLK13 substrate]",17.8 ± 2.8,94.36 ± 3.05,over 5 × 10^6 M^−1·s^−1,KLK13 concentration at which fluorescence increase was still detectable [4]: 1.56 nM; kcat/KM (specificity constant) ([3]; listed as ABZ-VRFR-ANB-NH2 (1)): (5.31 ± 0.34) ×10^6 M^−1·s^−1
"ABZ-Val-Arg-Phe-Arg-Ser-Thr-Gln-Tyr(3-NO2)-NH2 [Substrate 2, internally quenched fluorogenic KLK13 substrate spanning P4-P3′]",10 ± 1.9,96.43 ± 7.15,–,Optimal pH for processing of the substrate by KLK13 [5]: 9; Hydrolysis by cathepsins [6]: None of tested cathepsins hydrolyzed; Site of hydrolysis by KLK13 [7]: exclusively hydrolyzed at the Arg-Ser peptide bond; Cleavage by other kallikreins relative to the activity of KLK13 [8]: ≤ 20%; KLK13 concentration at which fluorescence increase was still detectable [4]: 0.0488 nM; kcat/KM (specificity constant) ([3]; listed as ABZ-VRFRSTQ-Tyr(3-NO2)-NH2 (2)): (9.64 ± 1.08) ×10^6 M^−1·s^−1; kcat/KM (specificity constant) ([3]; listed as ABZ-Val-Arg-Phe-Arg-Ser-Thr-Gln-Tyr(3-NO2)-NH2): ≈ 10^7 M^−1·s^−1; kcat/KM (specificity constant) ([3]; listed as substrate 2): ~1e+07 M⁻¹ s⁻¹
